Laboratory results: US8697081B2, “Method of modulating neovascularization” (The Regents of the University of Michigan, priority 2008, dated 2014)

Legend:
Assay type in all cases: cell-based
[1] = tested on: Human umbilical vein endothelial cells; assay: Protein synthesis in 3-D-embedded endothelial cells; details: growth factor-stimulated cells
From the text: The laminar network of type A and type B lamins directly or indirectly binds chromatin and DNA, as well as a variety of inner nuclear membrane proteins functionally linked to nuclear architecture and mechanical integrity, chromatin organization, gene regulation, and DNA replication (Crisp and Burke, supra; Dechat et al., supra; Starr, supra).

[2] = tested on: Human umbilical vein endothelial cells; assay: RNA synthesis (transcriptional activity) in cultured endothelial cells; details: for transcriptional activity: 2-D culture conditions; for VEGF/HGF induction of transcriptional activity (RNA synthesis) / mRNA and rRNA synthesis inhibited: 3-D culture; for mRNA and rRNA synthesis inhibited: low dose actinomysin D used to separate rRNA synthesis, data not shown
From the text: (§1) At sites of tissue damage, inflammation or neoplasia, fibrinogen is converted into a 3-D meshwork of fibrin fibrils that serve as a structural support for endothelial cells undergoing neovascularization (Chun et al. 2006. Cell, 125: 577-591; Hiraoka et al. 1998. Cell, 95: 365-377; Schafer and Werner. 2008. Nat. Rev. Mol. Cell Biol., 9: 628-638; Zhou et al. 2008. Genes Dev., 22: 1231-1243). This process can be recapitulated in vitro by embedding serum-supplemented human endothelial cells within a 3-D fibrin gel in the presence of the pro-angiogenic factors, VEGF and HGF. Human umbilical vein endothelial cells were isolated from umbilical cords by perfusion of the umbilical vein with type 3 collagenase (Worthington, Lakewood, N.J.) and cultured in Medium-199 (Invitrogen, Carlsbad, Calif.) with 20% human serum and 50 μg/ml endothelial cell growth supplement (ECGS; BD Biosciences, Franklin Lakes, N.J.). For 3-D culture, endothelial cells were suspended in a solution of thrombin and aprotinin (Sigma, St. Louis, Mo.) and mixed 1:1 with a solution of 6 mg/ml fibrinogen (Calbiochem, Gibbstown, N.J.). Vasculogenesis was triggered by treatment with 100 ng/ml VEGF, 50 ng/ml HGF (Genentech, San Francisco, Calif.). Fibronectin fibrillogenesis was tracked in 3-D by co-culture with human fibronectin (Sigma) labeled with Alexa-594 (Invitrogen).
VEGF/HGF-induced chromatin dispersion, histone acetylation, and nuclear speckle decompaction observed in 3-D culture are consistent with global activation of transcription (Lamond and Spector, 2003. Nat. Rev. Mil. Cell Biol., 4: 605-612; Tang et al., supra). As such, RNA synthesis was quantified in cultured endothelial cells. […] Under 2-D culture conditions, transcriptional activity proceeded independently of pericellular ECM remodeling and was unaffected by FUD or GM6001.

[3] = tested on: Human umbilical vein endothelial cells; assay: Nuclear architecture (GFP-lamin A, emerin) and nuclear pore complex (NUP153) distribution; details: for nuclear architecture: 2-D conditions; for nuclear shape / redistribution of nuclear pore complexes: 3-D fibrin gel
From the text: as §1
As the 3-D-specific requirements for MT-MMPs and fibronectin matrix assembly correlate with changes in endothelial cell morphology, efforts were initiated to identify mechanistic routes whereby cell shape changes impact cell function. In particular, the impact of ECM remodeling on nuclear architecture was investigated. Nuclear architecture was tracked by either transfecting cells with a GFP-tagged form of the nuclear matrix filament, lamin A, or by immunostaining for the integral nuclear membrane protein, emerin (Dahl et al., 2008. Circ. Res., 102: 1307-1318; Glynn and Glover, 2005. Hum. Mol. Genet., 14: 2959-2969; Starr, 2009. J. Cell Sci., 122: 577-586; Stewart et al., 2007. Science, 318: 1408-1412). Under 2-D conditions, endothelial cell nuclei assumed an ellipsoid shape when cultured atop fibrin gels in the absence or presence of VEGF/HGF. In marked contrast, under 3-D conditions, endothelial cells cultured within fibrin gels in the absence of VEGF/HGF unexpectedly display a distorted morphology with multiple lamin A matrix and emerin infoldings and surface irregularities. Upon addition of VEGF/HGF, however, the nuclei of fibrin-embedded endothelial cells undergo a dramatic, and 3-D-specific, remodeling to assume a more classic, ovoid morphology. Three-dimensional reconstructions of DAPI-stained nuclei confirm that nuclear architecture transitions between multi-lobed and smooth elliptical shapes in the absence or presence, respectively, of VEGF/HGF.
Nuclear matrix architecture controls the distribution of the nuclear pore complexes that regulate the trafficking of protein and RNA across the nuclear envelope (Goldman et al., 2004. Proc. Natl. Acad. Sci. USA, 101: 8963-8968; Hawryluk-Gara et al., 2005. Mol. Biol. Cell, 16: 2382-2394; Liu et al., 2007. J. Cell. Biol., 178: 785-798). As such, the localization of nuclear pores was assessed in intact cells by monitoring the localization of the component protein, NUP153. In 3-D culture, unstimulated endothelial cells accumulate NUP153-containing pore complexes at nuclear membrane invaginations. In contrast, the nuclei of VEGF/HGF-stimulated endothelial cells display a uniform distribution of pore complexes in nuclear membranes.
To determine the roles of MMP-dependent proteolysis and fibronectin matrix assembly in mediating nuclear shape and nuclear pore complex changes, fibrin-embedded endothelial cells were stimulated with VEGF/HGF in the presence of FUD or GM6001. […]

[4] = tested on: Human umbilical vein endothelial cells; assay: VEGF/HGF-triggered vasculogenesis in 3-D fibrin gel, or growth in 2-D culture; details: for growth of VEGF/HGF-stimulated endothelial cells: 2-D culture atop fibrin gels; for elongation, proliferation and neovessel formation: 3-D fibrin gel
From the text: as §1
In the presence of VEGF and HGF, endothelial cells i) underwent marked changes in cell morphology from spherical to elongated, ii) mobilized proteinases which degrade the surrounding fibrin, iii) assembled a pericellular meshwork of fibronectin fibrils, and iv) initiated proliferative and tubulogenic responses that result in the formation of an anastomosing network of neovessels over a 6 day culture period (Hiraoka, supra; Saunders et al., 2006. J Cell Biol. 175: 179-191; Zhou et al., 2008. Proc. Natl. Acad. Sci. USA, 97: 4052-4057). […] Cell, 125: 757-767; Saunders et al., supra; Tomasini-Johansson et al., 2001. J. Biol. Chem., 276: 23430-23439; Zhou et al, supra). Endothelial cells cultured atop—rather than embedded within—fibrin gels (herein referred to as 2-D culture) display distinct growth requirements from those observed in 3-D culture.
Taken together, cytoskeletal reorganization and contractile tension may serve as the biomechanical effectors that transmit structural and mechanical cues from the pericellular ECM to the nuclear envelope. VEGF/HGF-stimulated endothelial cells were treated with either (a) blebbistatin to inhibit myosin ATPase function, or (b) nocodazole to prevent microtubule assembly under 3-D culture conditions (Salpingidou et al., 2007. J. Cell Biol., 178: 897-904; Zhou et al., supra).

[5] = 3-D culture, VEGF/HGF-stimulated, blebbistatin or nocodazole

Molecule: CNC(=O)[C@H](Cc1c[nH]c2ccccc12)NC(=O)[C@@H](CC(=O)NO)CC(C)C [GM6001]
- protein synthesis [1]: no major changes
- transcriptional activity [2]: unaffected
- VEGF/HGF induction of transcriptional activity (RNA synthesis) [2]: attenuated significantly
- mRNA and rRNA synthesis inhibited [2]: ~50%
- nuclear architecture [3]: unaffected
- TUNEL staining with formation of multi-lobed nuclei ([3]; 3-D culture): does not correlate with increased TUNEL staining
- nuclear shape ([3]; VEGF/HGF-stimulated): locked endothelial cell nuclei into the multi-lobular conformation
- redistribution of nuclear pore complexes ([3]; VEGF/HGF-stimulated): completely failed to redistribute
- growth of VEGF/HGF-stimulated endothelial cells [4]: neither GM6001 nor FUD affect the growth
- elongation, proliferation and neovessel formation ([4]; VEGF/HGF-stimulated): failed to elongate, proliferate or form neovessels

Molecule: Cc1ccc2c(c1)C(=O)C1(O)CCN(c3ccccc3)C1=N2 (stereo not shown) [blebbistatin]
- nuclear shape and nuclear pore distribution [3, 5]: multi-lobed nuclei with perturbations in nuclear pore distribution
- endothelial cell 3-D tubulogenesis [4, 5]: completely inhibit

Molecule: FUD: 49-residue functional upstream domain of Streptococcus pyogenes F1 adhesion protein, SEQ ID NO: 10; fibronectin fibril assembly inhibitor (KDQSPLAGESGETEYITEVYGNQQNPVDIDKKLPNETGFSGNMVETEDT; Streptococcus pyogenes; Functional Upstream Domain (FUD) of F1 adhesion protein)
- protein synthesis [1]: no major changes
- transcriptional activity [2]: unaffected
- VEGF/HGF induction of transcriptional activity (RNA synthesis) [2]: attenuated significantly
- mRNA and rRNA synthesis inhibited [2]: ~50%
- nuclear architecture [3]: unaffected
- TUNEL staining with formation of multi-lobed nuclei ([3]; 3-D culture): does not correlate with increased TUNEL staining
- nuclear shape ([3]; VEGF/HGF-stimulated): locked endothelial cell nuclei into the multi-lobular conformation
- redistribution of nuclear pore complexes ([3]; VEGF/HGF-stimulated): completely failed to redistribute
- growth of VEGF/HGF-stimulated endothelial cells [4]: neither GM6001 nor FUD affect the growth
- elongation, proliferation and neovessel formation ([4]; VEGF/HGF-stimulated): failed to elongate, proliferate or form neovessels
